Data published in US11725012B2, “Imidazo[1,5-a]pyrazine derivatives as PI3K δ inhibitors” (priority 2016, dated 2023).
Read-outs that look alike come from different tables or passages of the source.

Legend:
Assay type in all cases: biochemical
[1] = molecular target: recombinant PI3K (p110δ/p85α) (Homo sapiens, UniProt O00329); assay: PI3Kδ ADP-Glo kinase assay
Method: Compounds disclosed herein were tested for inhibition of PI3Kδ kinase activity using commercial ADP-Glo™ Kinase Assay (Promega Corporation) and following the manufacture's instruction. Briefly, recombinant PI3K (p110δ/p85α) enzyme, lipid kinase substrate and a serial dilution of compounds disclosed herein were incubated for 0.5 hr at room temperature. ATP was added to initiate the kinase reaction. After incubation for 1 hr at room temperature, ADP-Glo™ reagent was added to terminate the kinase reaction and deplete the remaining ATP. After incubation for 1 hr at room temperature, kinase detection reagent was added to simultaneously convert ADP to ATP and allow the newly synthesized ATP to be measured using a luciferase/luciferin reaction. After incubation for 0.5 hr at room temperature, the luminescence generated was measured on a PHERAstar FS plate reader (BMG LABTECH), The residual enzyme activity in presence of increasing concentrations of compounds was calculated based on the luminescence. The IC50 for each compound was derived from fitting the data to the four-parameter logistic equation by Graphpad Prism software.

[2] = molecular target: recombinant PI3K (p110α/p85α) (Homo sapiens, UniProt P42336); assay: PI3Kα ADP-Glo kinase assay
[3] = molecular target: PI3K (p110β/p85α) (Homo sapiens, UniProt P42338); assay: PI3Kβ ADP-Glo kinase assay
[4] = molecular target: PI3K (p110γ) (Homo sapiens, UniProt P48736); assay: PI3Kγ ADP-Glo kinase assay
[5] = read-out: PI3Kδ Enzyme activity IC50
[6] = read-out: PI3Kα Enzyme activity IC50
[7] = read-out: PI3Kβ Enzyme activity IC50
[8] = read-out: PI3Kγ Enzyme activity IC50

Sequence of recombinant PI3K (p110δ/p85α) (O00329 whole entry): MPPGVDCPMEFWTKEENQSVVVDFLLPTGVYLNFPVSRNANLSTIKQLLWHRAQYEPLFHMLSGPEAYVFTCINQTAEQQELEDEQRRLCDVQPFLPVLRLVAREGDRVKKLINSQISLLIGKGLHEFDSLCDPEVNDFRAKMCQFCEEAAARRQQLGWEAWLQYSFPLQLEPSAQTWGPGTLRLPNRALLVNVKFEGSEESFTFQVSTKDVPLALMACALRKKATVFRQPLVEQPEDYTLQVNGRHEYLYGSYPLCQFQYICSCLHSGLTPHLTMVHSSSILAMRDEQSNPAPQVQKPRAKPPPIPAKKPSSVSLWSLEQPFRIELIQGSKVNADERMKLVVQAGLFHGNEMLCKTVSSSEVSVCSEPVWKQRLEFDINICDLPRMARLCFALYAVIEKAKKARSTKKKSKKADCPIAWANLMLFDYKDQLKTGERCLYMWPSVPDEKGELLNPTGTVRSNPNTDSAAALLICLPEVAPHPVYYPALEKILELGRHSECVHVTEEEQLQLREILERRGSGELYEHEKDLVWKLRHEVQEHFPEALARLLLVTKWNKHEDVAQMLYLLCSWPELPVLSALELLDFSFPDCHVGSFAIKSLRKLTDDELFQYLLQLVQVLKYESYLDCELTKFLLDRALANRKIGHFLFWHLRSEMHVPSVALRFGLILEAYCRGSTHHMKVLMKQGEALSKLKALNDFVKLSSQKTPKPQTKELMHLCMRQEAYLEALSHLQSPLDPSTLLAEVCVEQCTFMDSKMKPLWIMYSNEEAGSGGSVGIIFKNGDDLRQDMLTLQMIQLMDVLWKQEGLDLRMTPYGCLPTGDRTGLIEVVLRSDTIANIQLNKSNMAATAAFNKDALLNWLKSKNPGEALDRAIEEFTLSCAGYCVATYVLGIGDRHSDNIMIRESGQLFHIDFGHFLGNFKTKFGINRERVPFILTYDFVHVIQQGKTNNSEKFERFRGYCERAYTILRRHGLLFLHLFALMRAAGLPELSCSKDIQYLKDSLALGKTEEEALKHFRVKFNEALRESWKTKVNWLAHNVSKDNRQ
Sequence of recombinant PI3K (p110δ/p85α) (P27986 whole entry partner): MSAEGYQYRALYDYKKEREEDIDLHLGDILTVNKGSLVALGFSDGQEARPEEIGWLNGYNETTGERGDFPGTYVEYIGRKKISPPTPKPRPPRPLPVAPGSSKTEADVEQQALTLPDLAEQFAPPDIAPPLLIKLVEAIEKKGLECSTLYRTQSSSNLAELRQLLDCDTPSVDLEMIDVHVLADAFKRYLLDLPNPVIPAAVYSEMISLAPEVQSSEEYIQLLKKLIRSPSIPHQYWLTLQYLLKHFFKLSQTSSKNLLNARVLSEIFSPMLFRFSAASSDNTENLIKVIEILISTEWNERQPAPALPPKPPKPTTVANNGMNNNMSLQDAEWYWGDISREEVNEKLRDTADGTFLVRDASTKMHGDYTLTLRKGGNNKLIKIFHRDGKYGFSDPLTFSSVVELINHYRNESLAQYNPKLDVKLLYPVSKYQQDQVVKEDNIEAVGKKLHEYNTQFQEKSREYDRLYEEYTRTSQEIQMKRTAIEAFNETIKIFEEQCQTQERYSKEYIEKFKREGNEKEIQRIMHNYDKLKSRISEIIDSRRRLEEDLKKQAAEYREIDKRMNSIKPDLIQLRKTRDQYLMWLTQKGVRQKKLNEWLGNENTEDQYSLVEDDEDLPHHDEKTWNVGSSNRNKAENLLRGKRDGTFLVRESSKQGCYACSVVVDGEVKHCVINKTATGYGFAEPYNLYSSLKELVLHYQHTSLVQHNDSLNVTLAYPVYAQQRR
Sequence of PI3K (p110β/p85α) (P42338 whole entry): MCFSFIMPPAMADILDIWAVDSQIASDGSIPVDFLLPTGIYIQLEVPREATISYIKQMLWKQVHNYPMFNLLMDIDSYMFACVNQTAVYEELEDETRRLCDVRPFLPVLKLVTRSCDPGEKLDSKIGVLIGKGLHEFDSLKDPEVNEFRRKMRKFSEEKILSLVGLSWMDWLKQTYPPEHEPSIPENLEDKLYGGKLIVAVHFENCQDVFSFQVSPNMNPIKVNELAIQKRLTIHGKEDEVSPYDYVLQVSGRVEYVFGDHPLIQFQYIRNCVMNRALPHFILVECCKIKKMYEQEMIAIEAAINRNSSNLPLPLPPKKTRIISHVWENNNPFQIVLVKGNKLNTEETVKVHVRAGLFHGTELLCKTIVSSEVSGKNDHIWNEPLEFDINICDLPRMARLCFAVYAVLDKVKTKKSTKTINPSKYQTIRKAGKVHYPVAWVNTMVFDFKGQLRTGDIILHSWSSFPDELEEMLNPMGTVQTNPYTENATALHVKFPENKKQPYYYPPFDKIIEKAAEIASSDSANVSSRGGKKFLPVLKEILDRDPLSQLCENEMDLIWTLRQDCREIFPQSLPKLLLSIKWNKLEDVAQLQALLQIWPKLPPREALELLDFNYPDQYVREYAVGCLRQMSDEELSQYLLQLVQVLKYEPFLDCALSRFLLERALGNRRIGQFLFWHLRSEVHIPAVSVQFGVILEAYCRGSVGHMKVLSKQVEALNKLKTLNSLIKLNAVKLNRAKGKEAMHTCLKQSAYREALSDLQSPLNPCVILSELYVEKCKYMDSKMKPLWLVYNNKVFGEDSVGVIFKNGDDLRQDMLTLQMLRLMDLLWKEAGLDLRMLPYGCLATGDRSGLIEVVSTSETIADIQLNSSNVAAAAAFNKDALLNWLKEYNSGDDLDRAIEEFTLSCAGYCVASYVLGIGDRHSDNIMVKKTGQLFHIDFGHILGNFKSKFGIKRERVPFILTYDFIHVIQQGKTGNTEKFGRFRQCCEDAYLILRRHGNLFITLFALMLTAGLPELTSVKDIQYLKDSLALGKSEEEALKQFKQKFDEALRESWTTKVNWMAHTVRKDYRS
Sequence of PI3K (p110β/p85α) (P27986 whole entry partner): as the sequence (P27986 whole entry partner) above
Sequence of PI3K (p110γ) (P48736 whole entry): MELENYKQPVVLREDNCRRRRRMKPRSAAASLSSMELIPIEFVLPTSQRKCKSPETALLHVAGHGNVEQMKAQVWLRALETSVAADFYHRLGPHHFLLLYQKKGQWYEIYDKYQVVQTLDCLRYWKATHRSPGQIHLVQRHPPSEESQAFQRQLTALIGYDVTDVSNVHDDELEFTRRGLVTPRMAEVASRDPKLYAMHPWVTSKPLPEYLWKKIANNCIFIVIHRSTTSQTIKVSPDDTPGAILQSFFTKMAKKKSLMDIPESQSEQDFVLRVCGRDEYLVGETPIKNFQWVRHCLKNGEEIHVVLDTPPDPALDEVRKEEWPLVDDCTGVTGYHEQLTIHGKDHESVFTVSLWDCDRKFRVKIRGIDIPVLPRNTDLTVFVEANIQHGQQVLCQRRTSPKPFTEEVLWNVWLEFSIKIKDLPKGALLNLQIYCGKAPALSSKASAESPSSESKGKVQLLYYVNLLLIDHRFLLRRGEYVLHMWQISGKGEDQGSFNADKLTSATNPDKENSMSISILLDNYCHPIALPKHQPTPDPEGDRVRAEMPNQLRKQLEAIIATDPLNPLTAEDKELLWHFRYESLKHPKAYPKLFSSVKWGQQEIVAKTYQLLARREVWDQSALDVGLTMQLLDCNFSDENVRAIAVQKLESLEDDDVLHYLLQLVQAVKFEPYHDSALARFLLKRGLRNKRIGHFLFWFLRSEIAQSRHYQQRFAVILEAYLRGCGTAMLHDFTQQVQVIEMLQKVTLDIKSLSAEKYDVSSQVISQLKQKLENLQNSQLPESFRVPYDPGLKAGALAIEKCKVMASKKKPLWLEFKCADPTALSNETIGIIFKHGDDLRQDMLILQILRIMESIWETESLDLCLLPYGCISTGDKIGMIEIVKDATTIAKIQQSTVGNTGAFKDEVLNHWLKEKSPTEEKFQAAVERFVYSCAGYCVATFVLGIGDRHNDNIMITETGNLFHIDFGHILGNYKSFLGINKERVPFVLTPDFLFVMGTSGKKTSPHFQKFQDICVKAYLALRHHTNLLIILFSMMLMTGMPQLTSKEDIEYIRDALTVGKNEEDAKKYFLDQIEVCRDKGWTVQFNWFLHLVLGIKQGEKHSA
Sequence of recombinant PI3K (p110α/p85α) (P42336 whole entry): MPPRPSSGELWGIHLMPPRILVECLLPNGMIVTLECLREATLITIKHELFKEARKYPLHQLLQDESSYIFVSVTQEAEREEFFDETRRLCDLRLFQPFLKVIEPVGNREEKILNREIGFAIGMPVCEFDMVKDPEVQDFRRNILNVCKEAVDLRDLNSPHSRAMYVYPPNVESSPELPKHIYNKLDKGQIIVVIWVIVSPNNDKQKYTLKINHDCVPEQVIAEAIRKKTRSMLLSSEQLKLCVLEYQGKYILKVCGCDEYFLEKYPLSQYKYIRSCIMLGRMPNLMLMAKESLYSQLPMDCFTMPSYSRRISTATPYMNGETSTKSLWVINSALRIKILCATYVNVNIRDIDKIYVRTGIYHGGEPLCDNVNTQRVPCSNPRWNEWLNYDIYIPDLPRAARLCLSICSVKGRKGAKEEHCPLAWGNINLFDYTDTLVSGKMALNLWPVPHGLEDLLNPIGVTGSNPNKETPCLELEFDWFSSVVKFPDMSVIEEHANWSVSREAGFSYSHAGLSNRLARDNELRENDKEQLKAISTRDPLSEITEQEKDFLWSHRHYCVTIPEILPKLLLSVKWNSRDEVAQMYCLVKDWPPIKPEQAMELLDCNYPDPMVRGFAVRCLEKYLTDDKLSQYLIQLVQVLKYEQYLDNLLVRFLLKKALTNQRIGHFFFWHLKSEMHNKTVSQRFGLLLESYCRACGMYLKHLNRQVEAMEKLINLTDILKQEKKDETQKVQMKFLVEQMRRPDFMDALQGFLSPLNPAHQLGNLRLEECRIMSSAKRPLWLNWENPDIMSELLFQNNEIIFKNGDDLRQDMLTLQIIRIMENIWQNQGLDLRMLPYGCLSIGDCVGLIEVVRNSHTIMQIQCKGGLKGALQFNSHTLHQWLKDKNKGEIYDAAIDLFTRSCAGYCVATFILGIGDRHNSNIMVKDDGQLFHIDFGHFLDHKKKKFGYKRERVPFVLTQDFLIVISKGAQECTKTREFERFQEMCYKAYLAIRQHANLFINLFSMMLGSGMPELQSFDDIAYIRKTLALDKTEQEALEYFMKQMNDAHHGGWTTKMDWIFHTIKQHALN
Sequence of recombinant PI3K (p110α/p85α) (P27986 whole entry partner): as the sequence (P27986 whole entry partner) above

Compound | IC50 [1, 5] [nM] | IC50 [2, 6] [nM] | IC50 [3, 7] [nM] | IC50 [4, 8] [nM] | IC50 ([1]; PI3Kδ Enzyme activity IC50) [nM] | IC50 ([2]; PI3Kα Enzyme activity IC50) [nM] | IC50 ([3]; PI3Kβ Enzyme activity IC50) [nM] | IC50 ([4]; PI3Kγ Enzyme activity IC50) [nM]
CCOc1c(C(C)c2nc(Cl)c3c(N)nccn23)cc(Cl)c(C)c1-c1ccc(Cl)nc1 (stereo not drawn) [Compound 27, 1-chloro-3-(1-(5-chloro-3-(6-chloropyridin-3-yl)-2-ethoxy-4-methylphenyl)ethyl)imidazo[1,5-a]pyrazin-8-amine] | 2.5 | 3300 | 1800 | 1400 |  |  |  | 
CCOc1c([C@H](C)c2nc(Cl)c3c(N)nccn23)cc(Cl)c(C)c1-c1ccc(Cl)nc1 [Compound 27A] | 1.1 | 2200 | 400 | 1000 |  |  |  | 
CCOc1c(C(C)c2nc(Br)c3c(N)nccn23)cc(Cl)c(C)c1-c1ccc(OC)nc1 (stereo not drawn) [Compound 28, 1-bromo-3-(l-(5-chloro-2-ethoxy-3-(6-methoxypyridin-3-yl)-4-methylphenyl)ethyl)imidazo[1,5-a]pyrazin-8-amine] |  |  |  |  | 3.2 | 2300 | 930 | 740
CCOc1c(C(C)c2nc(Cl)c3c(N)nccn23)cc(Cl)c(C)c1-c1ccc(OC)nc1 (stereo not drawn) [Compound 29, 1-chloro-3-(1-(5-chloro-2-ethoxy-3-(6-methoxypyridin-3-yl)-4-methylphenyl)ethyl)imidazo[1,5-a]pyrazin-8-amine] | 2.1 | 2900 | 820 | 1100 |  |  |  | 
CCOc1c(C(C)c2nc(Br)c3c(N)nccn23)cc(Cl)c(C)c1-c1ccc(OCCOC)nc1 (stereo not drawn) [Compound 30, 1-bromo-3-(1-(5-chloro-2-ethoxy-3-(6-(2-methoxyethoxy)pyridin-3-yl)-4-methylphenyl)ethyl)imidazo[1,5-a]pyrazin-8-amine] | 2.3 | 1800 | 530 | 450 |  |  |  | 
CCOc1c(C(C)c2nc(Cl)c3c(N)nccn23)cc(Cl)c(C)c1-c1ccc(OCCOC)nc1 (stereo not drawn) [Compound 31, 1-chloro-3-(1-(5-chloro-2-ethoxy-3-(6-(2-methoxyethoxy)pyridin-3-yl)-4-methylphenyl)ethyl)imidazo[1,5-a]pyrazin-8-amine] | 2.5 | 2200 | 620 | 430 |  |  |  | 
CCOc1c(C(C)c2nc(C)c3c(N)nccn23)cc(Cl)c(C)c1-c1ccc(C(F)(F)F)nc1 (stereo not drawn) [Compound 32, 3-(1-(5-chloro-2-ethoxy-4-methyl-3-(6-(trifluoromethyl)pyridin-3-yl)phenyl)ethyl)-1-methylimidazo[1,5-a]pyrazin-8-amine] | 8.5 | 7400 | 3500 | 2100 |  |  |  | 
CCOc1c(C(C)c2nc(Cl)c3c(N)nccn23)cc(F)c(Cl)c1-c1ccc(C(F)(F)F)nc1 (stereo not drawn) [Compound 33, 1-chloro-3-(1-(4-chloro-2-ethoxy-5-fluoro-3-(6-(trifluoromethyl)pyridin-3-yl)phenyl)ethyl)imidazo[1,5-a]pyrazin-8-amine] | 5.7 | 1800 | 1800 | 750 |  |  |  | 
CC(C)Oc1c(C(C)c2nc(Cl)c3c(N)nccn23)cc(F)c(Cl)c1-c1ccc(C(F)(F)F)nc1 (stereo not drawn) [Compound 35, 1-chloro-3-(1-(4-chloro-5-fluoro-2-isopropoxy-3-(6-(trifluoromethyl)pyridin-3-yl)phenyl)ethyl)imidazo[1,5-a]pyrazin-8-amine] | 11 | 23000 | 79000 | 5900 |  |  |  | 
CCOc1c(C(C)c2nc(Cl)c3c(N)nccn23)cc(Cl)c(Cl)c1-c1ccc(C(F)(F)F)nc1 (stereo not drawn) [Compound 36, 1-chloro-3-(1-(4,5-dichloro-2-ethoxy-3-(6-(trifluoromethyl)pyridin-3-yl)phenyl)ethyl)imidazo[1,5-a]pyrazin-8-amine] | 2.2 | 1300 | 580 | 730 |  |  |  | 
CC(C)Oc1c(C(C)c2nc(Cl)c3c(N)nccn23)cc(Cl)c(Cl)c1-c1ccc(C(F)(F)F)nc1 (stereo not drawn) [Compound 37, 1-chloro-3-(1-(4,5-dichloro-2-isopropoxy-3-(6-(trifluoromethyl)pyridin-3-yl)phenyl)ethyl)imidazo[1,5-a]pyrazin-amine] | 4.2 | 11000 | 1900 | 900 |  |  |  | 
Cc1c(Cl)cc(C(C)c2nc(Br)c3c(N)nccn23)c(OC(C)C)c1-c1ccc(C(F)(F)F)nc1 (stereo not drawn) [Compound 38, 1-bromo-3-(1-(5-chloro-2-isopropoxy-4-methyl-3-(6-(trifluoromethyl)pyridin-3-yl)phenyl)ethyl)imidazo[1,5-a]pyrazin-8-amine] | 19 | > 200000 | 30000 | 2800 |  |  |  | 
Cc1c(Cl)cc([C@H](C)c2nc(Br)c3c(N)nccn23)c(OC(C)C)c1-c1ccc(C(F)(F)F)nc1 [Compound 38A] | 5.4 | > 200000 | 28000 | 740 |  |  |  | 
CCOc1c(C(C)c2nc(Br)c3c(N)nccn23)cc(Cl)c(C)c1-c1cncc(C(F)(F)F)c1 (stereo not drawn) [Compound 39, 1-bromo-3-(1-(5-chloro-2-ethoxy-4-methyl-3-(5-(trifluoromethyl)pyridin-3-yl)phenyl)ethyl)imidazo[1,5-a]pyrazin-8-amine] | 5.7 | 3200 | 2000 | 1600 |  |  |  | 
CC(C)Oc1c(C(C)c2nc(Cl)c3c(N)nccn23)cc(Cl)c(F)c1-c1ccc(C(F)(F)F)nc1 (stereo not drawn) [Compound 40, 1-chloro-3-(1-(5-chloro-4-fluoro-2-isopropoxy-3-(6-(trifluoromethyl)pyridin-3-yl)phenyl)ethyl)imidazo[1,5-a]pyrazin-8-amine] | 5.5 | > 50000 | > 50000 | > 50000 |  |  |  | 
CCOc1c(C(C)c2nc(Cl)c3c(N)nccn23)cc(Cl)c(F)c1-c1ccc(C(F)(F)F)nc1 (stereo not drawn) [Compound 41, 1-chloro-3-(1-(5-chloro-2-ethoxy-4-fluoro-3-(6-(trifluoromethyl)pyridin-3-yl)phenyl)ethyl)imidazo[1,5-a]pyrazin-8-amine] | 3.2 | 2700 | 3100 | 2100 |  |  |  | 
CCOc1c([C@H](C)c2nc(Cl)c3c(N)nccn23)cc(Cl)c(F)c1-c1ccc(C(F)(F)F)nc1 [Compound 41A] | 2.1 | 2200 | 1200 | 730 |  |  |  | 
CCCOc1c(C(C)c2nc(Cl)c3c(N)nccn23)cc(Cl)c(F)c1-c1ccc(C(F)(F)F)nc1 (stereo not drawn) [Compound 42, 1-chloro-3-(1-(5-chloro-4-fluoro-2-propoxy-3-(6-(trifluoromethyl)pyridin-3-yl)phenyl)ethyl)imidazo[1,5-a]pyrazin-8-amine] | 7.4 | > 50000 | > 50000 | 1600 |  |  |  | 
CCCOc1c([C@H](C)c2nc(Cl)c3c(N)nccn23)cc(Cl)c(F)c1-c1ccc(C(F)(F)F)nc1 [Compound 42A] | 4.1 | 26000 | 2200 | 810 |  |  |  | 
CCOc1c(C(C)c2nc(Cl)c3c(N)nccn23)cc(Cl)c(F)c1-c1ccc(C(F)(F)F)nc1OC (stereo not drawn) [Compound 43, 1-chloro-3-(1-(5-chloro-2-ethoxy-4-fluoro-3-(2-methoxy-6-(trifluoromethyl)pyridin-3-yl)phenyl)ethyl)imidazo[1,5-al]pyrazin-8-amine] | 59 | > 50000 | > 50000 | > 50000 |  |  |  | 
CCOc1c([C@H](C)c2nc(Cl)c3c(N)nccn23)cc(Cl)c(F)c1-c1ccc(C(F)(F)F)nc1OC [Compound 43A] | 28 | > 50000 | > 50000 | > 50000 |  |  |  | 
